The source of these data is US10208288B2, “Differentiation of human embryonic stem cells into pancreatic endocrine cells” (Janssen Biotech, Inc., priority 2012, dated 2019).

The assay concerns cells of the human embryonic stem cell line H1 differentiated to stage 6. The experiment in a line: Phase contrast imaging of endocrine cluster formation in stage 6 cultures. It is filed as cell-based. The protocol: Cells of the human embryonic stem cell line H1 (hESC H1, passage 40) were seeded as single cells at 1×10^5 cells/cm^2 on MATRIGEL™ (1:30 dilution; BD Biosciences, NJ) coated dishes in mTeSR®1 media (StemCell Technologies, Vancouver, Canada) supplemented with 10 μM of Y27632. Forty-eight hours post seeding, cultures were washed in incomplete PBS (phosphate buffered saline without Mg or Ca). Cultures were differentiated into pancreatic endoderm/endocrine lineages as follows: • a) Stage 1 (Definitive Endoderm (DE)—3 days): Cells were cultured for one day in stage 1 media (see Example 1, above). Cells were then cultured for an additional day in MCDB-131 medium supplemented with 0.1% fatty acid-free BSA, 0.0012 g/ml sodium bicarbonate, 1× GlutaMax™, 4.5 mM D-Glucose, 100 ng/ml GDF8, and 0.1 μM MCX compound. Cells were then cultured for an additional day in MCDB-131 medium supplemented with 0.1% fatty acid-free BSA, 0.0012 g/ml sodium bicarbonate, 1× GlutaMax™, 4.5 mM D-Glucose, and 100 ng/ml GDF8, then • b) Stage 2 (Primitive gut tube—2 days): Cells were treated for two days with MCDB-131 medium supplemented with 0.1% fatty acid-free BSA; 0.0012 g/ml sodium bicarbonate; 1× GlutaMax™; 4.5 mM D-Glucose; 0.25 mM ascorbic acid (Sigma, Mo.) and 25 ng/ml FGF7 (R & D Systems, MN), then • c) Stage 3 (Foregut—2 days): Cells were treated with MCDB-131 medium supplemented with a 1:200 dilution of ITS-X (Invitrogen, Ca); 4.5 mM Glucose; 1× GlutaMax™; 0.0017 g/ml sodium bicarbonate; 2% fatty acid-free BSA; 0.25 μM SANT-1 (Sigma, Mo.); 10 ng/ml of Activin-A (R& D Systems, MN); 1 μM RA (Sigma, Mo.); 25 ng/ml FGF7; 0.25 mM ascorbic acid; 200 nM TPB (PKC activator; Catalog No. 565740; EMD Chemicals, Gibstown, N.J.); 10 μM forskolin (FSK, Sigma, Mo.), and 100 nM LDN (BMP receptor inhibitor; Catalog No. 04-0019; Stemgent, Calif.) for day 1. […]

On to `CCCCCCCCCCCCC/C=C/[C@@H](O)[C@@H](N)COP(=O)(O)O` [S1P, sphingosine-1-phosphate], for which the “time at which endocrine clusters emerged after start of stage 6” value (10 μM added for three days at stage 6, FIG. 6A, 6B) worked out at 3 days. Where the note is “10 μM at stage 6, vs control cultures”, the “formation of clusters earlier than in control cultures” value is given as “about 7 days”. Further, the “clustering of endocrine cells” value (S6 cultures, day 7, phase contrast, FIG. 4B) is listed as “clear evidence of clustering of endocrine cells”. Under “S6 cultures, day 10, phase contrast, FIG. 4C, 4D”, the “appearance of endocrine clusters” value is “clusters were separated from each other by a thin layer of pancreatic endoderm epithelium”.
